SMILES strings stand for the structures. Read-outs that look alike come from different tables or passages of the source.

One experiment has as its target human DGKα (Homo sapiens, UniProt P23743). In words: DGKα Biochemical Activity Assay (ADP-Glo).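 Further: luminescent detection of ADP produced as DGKα phosphorylates DAG to phosphatidic acid, IC50 from four-parameter nonlinear curve fit.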 As to conditions: recombinant DGKα 1 nM, 100 μM ATP, 18:1 DAG/POPS/octylglucoside micelles, 1 hour at 25° C.; geometric mean; read-out: HTBS DGKa 1X ATP KM IC50.
Experiment [1] relates to Jurkat NFκB-luciferase cells. In words: Jurkat NFκB-Luciferase Assay. Type of experiment: cell-based. The note with it: Homo sapiens. How it is done:
The day after, the excess antibody was washed out five times with 100 ul/well of assay medium (RPMI supplemented with 10% fetal bovine serum) using a Biotek EL406 instrument and leaving 20 ul of residual volume in each well. Jurkat NFκB-luciferase cells (Promega #) were harvested and diluted to 1 million cells/ml in assay medium. […] Thirty microliters of medium containing the Jurkat NFκB-luciferase cells were then dispensed using a Biotek MicroFlo instrument in each well of the compound-containing plate. […] Forty microliters of One-Glo Ex (Promega) was then added to the assay mixture and luciferase activity was read on a Envision plate reader 7 minutes later.

Setting [2] is: Jurkat NFκB-luciferase cells activated with anti-CD3 antibody (OKT3), 2.5 hrs at 37° C., geometric mean, read-out: DGK NFKb Luciferase EC50.
Where [3] appears, read: Jurkat, […], read-out: DGK NFKb Luciferase EC50 (nM).

Sequence of human DGKα (P23743 whole entry): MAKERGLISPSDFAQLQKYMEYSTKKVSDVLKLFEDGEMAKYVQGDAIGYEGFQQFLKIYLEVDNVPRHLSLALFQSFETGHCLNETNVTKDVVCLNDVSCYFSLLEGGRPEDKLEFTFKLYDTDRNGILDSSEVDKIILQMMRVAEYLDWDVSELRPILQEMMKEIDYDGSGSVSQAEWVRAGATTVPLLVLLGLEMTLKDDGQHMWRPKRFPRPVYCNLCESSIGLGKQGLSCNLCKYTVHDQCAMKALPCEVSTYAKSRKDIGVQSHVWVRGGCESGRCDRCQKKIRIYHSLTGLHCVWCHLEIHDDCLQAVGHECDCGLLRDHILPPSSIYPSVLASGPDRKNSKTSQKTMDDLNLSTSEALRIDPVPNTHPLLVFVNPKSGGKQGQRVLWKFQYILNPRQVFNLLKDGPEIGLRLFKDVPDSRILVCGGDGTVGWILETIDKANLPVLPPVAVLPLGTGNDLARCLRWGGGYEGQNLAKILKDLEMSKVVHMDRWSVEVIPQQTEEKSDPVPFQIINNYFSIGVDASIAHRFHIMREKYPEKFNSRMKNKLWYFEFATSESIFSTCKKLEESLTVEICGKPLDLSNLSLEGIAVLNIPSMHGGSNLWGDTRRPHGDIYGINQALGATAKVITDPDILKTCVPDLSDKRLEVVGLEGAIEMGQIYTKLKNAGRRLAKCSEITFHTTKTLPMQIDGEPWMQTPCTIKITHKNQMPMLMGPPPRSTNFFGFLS

Regarding `Cc1nnc2nc(N3CCCc4c(C#CC5CCOCC5)cccc43)c3c(F)cccc3n12` [Example 26, 6-fluoro-1-methyl-5-(5-((tetrahydro-2H-pyran-4-yl)ethynyl)-3,4-dihydroquinolin-1(2H)-yl)-[1,2,4]triazolo[4,3-a]quinazoline], the IC50 on human DGKα came out at 22.5 nM. For the same molecule, in experiment [1] (setting [2]), the EC50 was 2.46 nM.

With `Cc1nnc2nc(N3CCCc4c(C#CC5(C)COC5)cccc43)c3c(F)cccc3n12` [Example 27, 6-fluoro-1-methyl-5-(5-((3-methyloxetan-3-yl)ethynyl)-3,4-dihydroquinolin-1(2H)-yl)-[1,2,4]triazolo[4,3-a]quinazoline], the IC50 on human DGKα was 15.1 nM. Further, in experiment [1] (setting [2]), the EC50 came to 3.52 nM.

For the molecule `Cc1nnc2nc(N3CCCc4c(C#CC5(O)CCC5)cccc43)c3cc(F)ccc3n12` [Example 28, 1-((1-(7-fluoro-1-methyl-[1,2,4]triazolo[4,3-a]quinazolin-5-yl)-1,2,3,4-tetrahydroquinolin-5-yl)ethynyl)cyclobutan-1-ol], at human DGKα, the IC50 was 9.49 nM. The EC50 in experiment [1] (setting [2]) came to 5.09 nM.

On to `Cc1nnc2nc(N3CCCc4c(C#CC5(C)COC5)cccc43)c3cc(F)ccc3n12` [Example 29, 7-fluoro-1-methyl-5-(5-((3-methyloxetan-3-yl)ethynyl)-3,4-dihydroquinolin-1(2H)-yl)-[1,2,4]triazolo[4,3-a]quinazoline], for which the 50% inhibitory concentration (IC50) at human DGKα stood at 3.31 nM. Further, in experiment [1] (setting [2]), the concentration for a half-maximal effect (EC50) was 0.66 nM.

As for `Cc1nnc2nc(N3CCCc4c(C#CC5CCC5)cccc43)c3cc(F)ccc3n12` [Example 30, 5-(5-(cyclobutylethynyl)-3,4-dihydroquinolin-1(2H)-yl)-7-fluoro-1-methyl-[1,2,4]triazolo[4,3-a]quinazoline], the half-inhibitory concentration (IC50) at human DGKα is 14.7 nM. In experiment [1] (setting [2]), the EC50 was 0.163 nM.

Regarding `Cc1nnc2nc(N3CCCc4c(C#CC5(C(C)(F)F)CC5)cccc43)c3cc(F)ccc3n12` [Example 31, 5-(5-((1-(1,1-difluoroethyl)cyclopropyl)ethynyl)-3,4-dihydroquinolin-1(2H)-yl)-7-fluoro-1-methyl-[1,2,4]triazolo[4,3-a]quinazoline], the IC50 on human DGKα turned out to be 50.9 nM. The EC50 in experiment [1] (setting [2]) was 1.43 nM.

Turning to `Cc1nnc2nc(N3CCCc4c(C#CC5CC(F)(F)C5)cccc43)c3cc(F)ccc3n12` [Example 32, 5-(5-((3,3-difluorocyclobutyl)ethynyl)-3,4-dihydroquinolin-1(2H)-yl)-7-fluoro-1-methyl-[1,2,4]triazolo[4,3-a]quinazoline], the IC50 on human DGKα came out at 11 nM. Further, the EC50 in experiment [1] (setting [2]) came out at 0.461 nM.

On to `Cc1nnc2nc(N3CCCc4c(C#CC5(C)CC5)cccc43)c3c(Cl)c(F)ccc3n12` [Example 33, 6-chloro-7-fluoro-1-methyl-5-[5-[2-(1-methylcyclopropyl)ethynyl]-3,4-dihydro-2H-quinolin-1-yl]-[1,2,4]triazolo[4,3-a]quinazoline], for which the IC50 at human DGKα came to 42.4 nM. For the same molecule, the concentration for a half-maximal effect (EC50) in experiment [1] (setting [2]) is 1.59 nM.

`Cc1nnc2nc(N3CCCc4c(C#CC(C)(C)C(F)F)cccc43)c3c(Cl)c(F)ccc3n12` [Example 34, 6-chloro-5-[5-(4,4-difluoro-3,3-dimethyl-but-1-ynyl)-3,4-dihydro-2H-quinolin-1-yl]-7-fluoro-1-methyl-[1,2,4]triazolo[4,3-a]quinazoline]: the IC50 at human DGKα is 30.4 nM. Also, in experiment [1] (setting [2]), the EC50 amounted to 0.907 nM.

As for `Cc1nnc2nc(N3CCCc4c(C#CC5(C(F)F)CC5)cccc43)c3c(Cl)c(F)ccc3n12` [Example 35, 6-chloro-5-[5-[2-[1-(difluoromethyl)cyclopropyl]ethynyl]-3,4-dihydro-2H-quinolin-1-yl]-7-fluoro-1-methyl-[1,2,4]triazolo[4,3-a]quinazoline], at human DGKα, the IC50 was found to be 5.44 nM. In addition, the EC50 in experiment [1] (setting [2]) was determined as 1.14 nM.

As for `Cc1nnc2nc(N3CCCc4c(C#CC(C)(C)C#N)cccc43)c3c(Cl)c(F)ccc3n12` [Example 36, 4-[1-(6-chloro-7-fluoro-1-methyl-[1,2,4]triazolo[4,3-a]quinazolin-5-yl)-3,4-dihydro-2H-quinolin-5-yl]-2,2-dimethyl-but-3-ynenitrile], the IC50 on human DGKα came out at 9.93 nM. The EC50 in experiment [1] (setting [2]) stood at 1.85 nM.

Turning to `Cc1nnc2nc(N3CCCc4c(C#CC5(C(F)(F)F)CC5)cccc43)c3c(Cl)c(F)ccc3n12` [Example 37, 6-chloro-7-fluoro-1-methyl-5-[5-[2-[1-(trifluoromethyl)cyclopropyl]ethynyl]-3,4-dihydro-2H-quinolin-1-yl]-[1,2,4]triazolo[4,3-a]quinazoline], the IC50 at human DGKα was found to be 64.8 nM. For the same molecule, the concentration for a half-maximal effect (EC50) in experiment [1] (setting [2]) is 1.88 nM.

Take `Fc1cc(Cl)c2c(c1)c(N1CCCc3c(C#CC4(C(F)(F)F)CC4)cccc31)nc1nncn12` [Example 38, 9-chloro-7-fluoro-5-[5-[2-[1-(trifluoromethyl)cyclopropyl]ethynyl]-3,4-dihydro-2H-quinolin-1-yl]-[1,2,4]triazolo[4,3-a]quinazoline]: on human DGKα, the 50% inhibitory concentration (IC50) amounted to 126 nM. Further, the 50% effective concentration (EC50) in experiment [1] (setting [2]) was 3.95 nM.

In the case of `Fc1ccc(Cl)c2c1c(N1CCOCc3c(C#CC4(C(F)F)CC4)cccc31)nc1nncn12` [Example 39, 1-(9-chloro-6-fluoro-[1,2,4]triazolo[4,3-a]quinazolin-5-yl)-6-[2-[1-(difluoromethyl)cyclopropyl]ethynyl]-3,5-dihydro-2H-4,1-benzoxazepine], on human DGKα, the half-inhibitory concentration (IC50) was 8.31 nM. The EC50 in experiment [1] (setting [2]) was determined as 2.18 nM.

Take `CC(C)(O)C#Cc1cccc2c1COCCN2c1nc2nncn2c2c(Cl)ccc(F)c12` [Example 40, 4-[1-(9-chloro-6-fluoro-[1,2,4]triazolo[4,3-a]quinazolin-5-yl)-3,5-dihydro-2H-4,1-benzoxazepin-6-yl]-2-methyl-but-3-yn-2-ol]: the IC50 at human DGKα is 12.6 nM. In experiment [1] (setting [3]), the EC50 turned out to be 17.1 nM.

As to `CC(C)(C#Cc1cccc2c1COCCN2c1nc2nncn2c2c(Cl)ccc(F)c12)C(F)F` [Example 41, 1-(9-chloro-6-fluoro-[1,2,4]triazolo[4,3-a]quinazolin-5-yl)-6-(4,4-difluoro-3,3-dimethyl-but-1-ynyl)-3,5-dihydro-2H-4,1-benzoxazepine], the IC50 at human DGKα stood at 11 nM. Moreover, the concentration giving a half-maximal response (EC50) in experiment [1] (setting [2]) came to 1.39 nM.

On to `Cc1nnc2nc(N(CC(F)F)c3ccnc(C#CC(C)(C)C(F)F)c3F)c3c(F)cccc3n12` [Example 42, N-[2-(4,4-difluoro-3,3-dimethyl-but-1-ynyl)-3-fluoro-4-pyridyl]-N-(2,2-difluoroethyl)-6-fluoro-1-methyl-[1,2,4]triazolo[4,3-a]quinazolin-5-amine], for which the IC50 on human DGKα is 6.93 nM. For the same molecule, the concentration for a half-maximal effect (EC50) in experiment [1] (setting [2]) was 2.32 nM.

On to `Cc1nnc2nc(N(CC(F)F)c3ccnc(C#CC(C)(C)C(F)(F)F)c3F)c3c(F)cccc3n12` [Example 43, N-(2,2-difluoroethyl)-6-fluoro-N-[3-fluoro-2-(4,4,4-trifluoro-3,3-dimethyl-but-1-ynyl)-4-pyridyl]-1-methyl-[1,2,4]triazolo[4,3-a]quinazolin-5-amine], for which the half-maximal inhibitory concentration (IC50) at human DGKα was found to be 9.97 nM. In experiment [1] (setting [2]), the concentration for a half-maximal effect (EC50) worked out at 1.22 nM.

As for `Cc1nnc2nc(N(CC(F)F)c3ccnc(C#CC4(C(F)F)CC4)c3F)c3c(F)cccc3n12` [Example 44, N-(2,2-difluoroethyl)-N-[2-[2-[1-(difluoromethyl)cyclopropyl]ethynyl]-3-fluoro-4-pyridyl]-6-fluoro-1-methyl-[1,2,4]triazolo[4,3-a]quinazolin-5-amine], on human DGKα, the IC50 was determined as 3.81 nM. Also, the EC50 in experiment [1] (setting [2]) came to 7.15 nM.

For the molecule `Cc1nnc2nc(N(CC(F)F)c3ccnc(C#CC(C)(C)O)c3F)c3c(F)cccc3n12` [Example 45, 4-[4-[2,2-difluoroethyl-(6-fluoro-1-methyl-[1,2,4]triazolo[4,3-a]quinazolin-5-yl)amino]-3-fluoro-2-pyridyl]-2-methyl-but-3-yn-2-ol], at human DGKα, the IC50 worked out at 8.25 nM. In experiment [1] (setting [3]), the EC50 came out at 329 nM.

`CC(C)(C#Cc1cc(F)cc(N(CC(F)F)c2nc3nncn3c3c(Cl)cc(F)cc23)c1)C(F)F` [Example 46, 9-chloro-N-[3-(4,4-difluoro-3,3-dimethyl-but-1-ynyl)-5-fluoro-phenyl]-N-(2,2-difluoroethyl)-7-fluoro-[1,2,4]triazolo[4,3-a]quinazolin-5-amine]: at human DGKα, the half-inhibitory concentration (IC50) was 15.6 nM. The 50% effective concentration (EC50) in experiment [1] (setting [2]) was 1.75 nM.

For the molecule `Fc1cc(C#CC2(C(F)F)CC2)cc(N(CC(F)F)c2nc3nncn3c3c(Cl)cc(F)cc23)c1` [Example 47, 9-chloro-N-(2,2-difluoroethyl)-N-[3-[2-[1-(difluoromethyl)cyclopropyl]ethynyl]-5-fluoro-phenyl]-7-fluoro-[1,2,4]triazolo[4,3-a]quinazolin-5-amine], the IC50 on human DGKα was determined as 18.8 nM. In addition, the EC50 in experiment [1] (setting [2]) was 3.92 nM.

For `Fc1cc(C#CC2(C(F)(F)F)CC2)cc(N(CC(F)F)c2nc3nncn3c3c(Cl)cc(F)cc23)c1` [Example 48, 9-chloro-N-(2,2-difluoroethyl)-7-fluoro-N-[3-fluoro-5-[2-[1-(trifluoromethyl)cyclopropyl]ethynyl]phenyl]-[1,2,4]triazolo[4,3-a]quinazolin-5-amine], the 50% inhibitory concentration (IC50) at human DGKα was 5.73 nM. The EC50 in experiment [1] (setting [2]) came out at 3.02 nM.

On to `CC1(C#Cc2cc(F)cc(N(CC(F)F)c3nc4nncn4c4c(Cl)cc(F)cc34)c2)CC1` [Example 49, 9-chloro-N-(2,2-difluoroethyl)-7-fluoro-N-[3-fluoro-5-[2-(1-methylcyclopropyl)ethynyl]phenyl]-[1,2,4]triazolo[4,3-a]quinazolin-5-amine], for which the IC50 on human DGKα amounted to 12.4 nM. Besides, in experiment [1] (setting [2]), the EC50 stood at 1.36 nM.

(Values after patent publication US11976072B2, “Diacylglycerol kinase modulating compounds” (priority 2021, dated 2024).)
